Consider one substance from US7374748B2, “Pharmaceutical and cosmetic compositions for the protection of the skin from damages induced by sun radiations” (Indena S.p.A., priority 2001, dated 2008).

The subject of this test is hepatic microsomes. Kind of test: antioxidant test with CCl4 as pro-oxidant stimulus and hepatic microsomes as target. Format: biochemical. Particulars: CCl4 as pro-oxidant stimulus, hepatic microsomes as target. From the text: They are characterized by excellent antioxidizing and antiinflammatory properties.

Turning to vitamin E, the “LC50 (antioxidant activity)” value was found to be 30.0 micrograms per ml.
